Like-named read-outs stand apart in the source and are kept apart here.
Legend:
[1] = system: Sweetpotato Whitefly-Crawler (WF) (Bemisia tabaci) (BEMITA); assay: Insecticidal test for Sweetpotato Whitefly-Crawler (WF) in foliar spray assay on cotton plants; format: in vivo; conditions: 216 h, read-out: WF 200 ppm, % Control (or Mortality) rating
Description: Insecticidal Test for Sweetpotato Whitefly-Crawler (WF) (Bemisia tabaci) (BEMITA) in Foliar Spray Assay
The sweetpotato whitefly (Bemisia tabaci) has been reported as a serious pest of cultivated crops world-wide. It has an extremely wide host range attacking more than 500 species of plants from 63 plant families. Weeds often serve as alternate hosts of crop pests. Direct feeding damage is caused by the piercing and sucking sap from the foliage of plants. This feeding causes weakening and early wilting of the plant and reduces the plant growth rate and yield Indirect damage results by the accumulation of honeydew produced by the whiteflies. Honeydew serves as a substrate for the growth of black sooty mold on leaves and fruit reducing photosynthesis and lessens the market value of the plant or yield. […] The sweetpotato whitefly is considered the most common and important whitefly vector of plant viruses worldwide.
Cotton plants (Gossypium hirsutum) grown in 3-inch pots, with 1 small (4-5 cm) true leaves, were used as test substrate. The plants were infested with 200-400 whitefly eggs 4-5 days prior to chemical application. Four pots with individual plants were used for each treatment. Test compounds (2 mg) were dissolved in 1 mL of acetone solvent, forming stock solutions of 2000 ppm test compound. The stock solutions were diluted 10× with 0.025% Tween 20 in water (diluents) to obtain the solution at 200 ppm test compound. A hand-held aspirator-type sprayer was used for spraying a solution to both sides of cotton leaves until runoff. Reference plants (solvent check) were sprayed with the diluent only containing 10% by volume of acetone solvent. Treated plants were held in a holding room for 9 days at approximately 25° C. and ambient relative humidity (RH) prior to grading. Evaluation was conducted by counting the number of live 3-4 nymph stage per plant under a microscope. Percent control was measured by using Abbott's correction formula (W. S. Abbott, “A Method of Computing the Effectiveness of an Insecticide” J. Econ. Entomol. 18 (1925), pp. 265-267) as follows.
Biological Data for Green Peach Aphid (GPA) (MYZUPE) and Sweetpotato Whitefly-Crawler (WF) (BEMITA)” (see table section). Corrected % Control=100*(X−Y)/X
X=No. of live nymphs on solvent check plants and
Y=No. of live nymphs on treated plants
(§1) The mortality efficiency of the pesticidal compounds against GPA and WF insects was determined after treatment.

[2] = system: Green Peach Aphid (GPA) (Myzus persicae) (MYZUPE); assay: Bioassay for Green Peach Aphid (GPA), foliar spray on cabbage seedlings; format: in vivo; conditions: 72 h, read-out: GPA 200 ppm, % Control (or Mortality) rating
Description: Bioassay for Green Peach Aphid (GPA) (Myzus persicae) (MYZUPE)
The green peach aphid (Myzus persicae) is the most significant aphid pest of peach trees, causing decreased growth, shriveling of the leaves, and the death of various tissues. It is also hazardous because it acts as a vector for the transport of plant viruses, such as potato virus Y and potato leafroll virus to members of the nightshade/potato family Solanaceae, and various mosaic viruses to many other food crops. GPA attacks such plants as broccoli, burdock, cabbage, carrot, cauliflower, daikon, eggplant, green beans, lettuce, macadamia, papaya, peppers, sweet potatoes, tomatoes, watercress, and zucchini, among other plants GPA also attacks many ornamental crops such as carnation, chrysanthemum, flowering white cabbage, poinsettia, and roses. GPA has developed resistance to many pesticides.
Cabbage seedlings grown in 3-inch pots, with 2-3 small (3-5 cm) true leaves, were used as test substrate. The seedlings were infested with 20-50 GPA (wingless adult and nymph stages) one day prior to chemical application. Four pots with individual seedlings were used for each treatment. Test compounds (2 mg) were dissolved in 2 mL of acetone/methanol (1:1) solvent, forming stock solutions of 1000 ppm test compound. The stock solutions were diluted 5× with 0.025% Tween 20 in water to obtain the solution at 200 ppm test compound. A hand-held aspirator-type sprayer was used for spraying a solution to both sides of […] leaves until runoff. Reference plants (solvent check) were sprayed with the diluent only containing 20% by volume of acetone/methanol (1:1) solvent. Treated plants were held in a holding room for three days at approximately 25° C. and ambient relative humidity (RH) prior to grading. Evaluation was conducted by counting the number of live aphids per plant under a microscope. Percent control was measured by using Abbott's correction formula (W. S. Abbott, “A Method of Computing the Effectiveness of an Insecticide” J. Econ. Entomol. 18 (1925), pp. 265-267) as follows. Corrected % Control=100*(X−Y)/X
X=No. of live aphids on solvent check plants and
Y=No. of live aphids on treated plants
Biological Data for Green Peach Aphid (GPA) (MYZUPE) and Sweetpotato Whitefly-Crawler (WF) (BEMITA)” (see table section).
as §1

[3] = 200 ppm foliar spray on cotton plants, graded after 9 days, Abbott corrected % control
[4] = 200 ppm foliar spray on cabbage seedlings, graded after three days, Abbott corrected % control

SMILES | mortality at 200 ppm [1, 3] | mortality at 200 ppm [2, 4] | mortality at 200 ppm ([1]; foliar) | mortality at 200 ppm ([2]; foliar)
CCN(C(=O)CCNC(=O)CC(C)C(F)(F)F)c1cn(-c2cccnc2)nc1Cl (stereo not shown) [Compound F28, N-(3-((3-Chloro-1-(pyridin-3-yl)-1H-pyrazol-4-yl)(ethyl)amino)-3-oxopropyl)-4,4,4-trifluoro-3-methylbutanamide] | 80 to 100% | 80 to 100% |  | 
CC(=O)N1CCC(C(=O)N(C)c2cn(-c3cccnc3)nc2Cl)CC1 [Compound F29, 1-Acetyl-N-(3-chloro-1-(pyridin-3-yl)-1H-pyrazol-4-yl)-N-methylpiperidine-4-carboxamide] | 80 to 100% | 80 to 100% |  | 
CCN(C(=O)CCC(=O)N(C)CC1CC1)c1cn(-c2cccnc2)nc1Cl [Compound F30, N1-(3-Chloro-1-(pyridin-3-yl)-1H-pyrazol-4-yl)-N4-(cyclopropylmethyl)-N1-ethyl-N4-methylsuccinamide] | 80 to 100% | 80 to 100% |  | 
CN(C(=O)CCN1CCOC1=O)c1cn(-c2cccnc2)nc1Cl [Compound F31, N-(3-chloro-1-(pyridin-3-yl)-1H-pyrazol-4-yl)-N-methyl-3-(2-oxooxazolidin-3-yl)propanamide] | 80 to 100% | 80 to 100% |  | 
CCN(C(=O)CC1CN(C)C1=O)c1cn(-c2cccnc2)nc1Cl (stereo not shown) [Compound F32, N-(3-chloro-1-(pyridin-3-yl)-1H-pyrazol-4-yl)-N-ethyl-2-(1-methyl-2-oxoazetidin-3-yl)acetamide] | 80 to 100% | 80 to 100% |  | 
CN(C(=O)CCC(=O)N1CCCCC1)c1cn(-c2cccnc2)nc1Cl [Compound F33, N-(3-Chloro-1-(pyridin-3-yl)-1H-pyrazol-4-yl)-N-methyl-4-oxo-4-(piperidin-1-yl)butanamide] | 80 to 100% | 0 to 80% |  | 
CCN(C(=O)CCN(CC(F)F)C(=O)C1CC1(F)F)c1cn(-c2cccnc2)nc1Cl (stereo not shown) [Compound F34, N-(3-((3-chloro-1-(pyridin-3-yl)-1H-pyrazol-4-yl)(ethyl)amino)-3-oxopropyl)-N-(2,2-difluoroethyl)-2,2-difluorocyclopropanecarboxamide] | 80 to 100% | 0 to 80% |  | 
CCN(C(=O)CCN(CC(F)F)C(=O)C1(C)CC1(F)F)c1cn(-c2cccnc2)nc1Cl (stereo not shown) [Compound F35, N-(3-((3-Chloro-1-(pyridin-3-yl)-1H-pyrazol-4-yl)(ethyl)amino)-3-oxopropyl)-N-(2,2-difluoroethyl)-2,2-difluoro-1-methylcyclopropane carboxamide] | 80 to 100% | 80 to 100% |  | 
CCN(C(=O)CC/C(C)=N/Oc1cc(C(F)(F)F)ccn1)c1cn(-c2cccnc2)nc1Cl [Compound F36, (E/Z)-N-(3-Chloro-1-(pyridin-3-yl)-1H-pyrazol-4-yl)-N-ethyl-4-(((4-(trifluoromethyl)pyridin-2-yl)oxy)imino)pentanamide] | 80 to 100% | 80 to 100% |  | 
CN(C(=O)CCC(=O)N1CCCC1)c1cn(-c2cccnc2)nc1Cl [Compound F37, N-(3-Chloro-1-(pyridin-3-yl)-1H-pyrazol-4-yl)-N-methyl-4-oxo-4-(pyrrolidin-1-yl)butanamide] | 80 to 100% | 0 to 80% |  | 
CN(C(=O)CCN1CCSC1=O)c1cn(-c2cccnc2)nc1Cl [Compound F38, N-(3-Chloro-1-(pyridin-3-yl)-1H-pyrazol-4-yl)-N-methyl-3-(2-oxothiazolidin-3-yl)propanamide] | 80 to 100% | 80 to 100% |  | 
CCN(C(=O)CCN1CCCC1=O)c1cn(-c2cccnc2)nc1Cl [Compound F39, N-(3-Chloro-1-(pyridin-3-yl)-1H-pyrazol-4-yl)-N-ethyl-3-(2-oxopyrrolidin-1-yl)propanamide] | 80 to 100% | 80 to 100% |  | 
CCSC(=O)N(C)CCC(=O)N(CC)c1cn(-c2cccnc2)nc1Cl [Compound F40, S-Ethyl (3-((3-chloro-1-(pyridin-3yl)-1H-pyrazol-4-yl)(ethyl)amino)-3-oxopropyl)(methyl) carbamothioate] | 0 to 80% | 0 to 80% |  | 
CCOC(=O)N(C)CCC(=O)N(CC)c1cn(-c2cccnc2)nc1Cl [Compound F42, Ethyl (3-((3-chloro-1-(pyridin-3-yl)-1H-pyrazol-4-yl)(ethyl)amino)-3-oxopropyl)(methyl)carbamate] | 80 to 100% | 80 to 100% |  | 
CCN(C(=O)CCC(=O)NCCF)c1cn(-c2cccnc2)nc1Cl [Compound F43, N1-(3-Chloro-1-(pyridin-3-yl)-1H-pyrazol-4-yl)-N1-ethyl-N4-(2-fluoroethyl)succinamide] | 80 to 100% | 0 to 80% |  | 
CCN(C(=O)CCNC(=O)C(C)CC(F)(F)F)c1cn(-c2cccnc2)nc1Cl (stereo not shown) [Compound F44, N-(3-((3-Chloro-1-(pyridin-3-yl)-1H-pyrazol-4-yl)(ethyl)amino)-3-oxopropyl)-4,4,4-trifluoro-2-methylbutanamide] | 80 to 100% | 80 to 100% |  | 
CCN(C(=O)CCNC(=O)Cc1ccc(F)cc1)c1cn(-c2cccnc2)nc1Cl [Compound F46, N-(3-Chloro-1-(pyridin-3-yl)-1H-pyrazol-4-yl)-N-ethyl-3-(2-(4-fluorophenyl)acetamido) propanamide] | 80 to 100% | 0 to 80% |  | 
CCN(C(=O)CN1CCOC1=O)c1cn(-c2cccnc2)nc1Cl [Compound F48, N-(3-Chloro-1-(pyridin-3-yl)-1H-pyrazol-4-yl)-N-ethyl-2-(2-oxooxazolidin-3-yl)acetamide] | 80 to 100% | 80 to 100% |  | 
CN(C(=O)CCN1CCCCC1=O)c1cn(-c2cccnc2)nc1Cl [Compound F49, N-(3-Chloro-1-(pyridin-3-yl)-1H-pyrazol-4-yl)-N-methyl-3-(2-oxopiperidin-1-yl)propanamide] | 80 to 100% | 80 to 100% |  | 
CCN(C(=O)CCC1CNC1=O)c1cn(-c2cccnc2)nc1Cl (stereo not shown) [Compound F50] | 80 to 100% | 0 to 80% |  | 
CCN(C(=O)CC/C(C)=N/OCC(F)(F)F)c1cn(-c2cccnc2)nc1Cl [Compound F51, (E/Z)-N-(3-Chloro-1-(pyridin-3-yl)-1H-pyrazol-4-yl)-N-ethyl-4-((2,2,2-trifluoroethoxy)imino) pentanamide] | 80 to 100% | 80 to 100% |  | 
CCN(C(=O)CCN(C)C(=O)OC(C)(C)C)c1cn(-c2cccnc2)nc1Cl [Compound F52, tert-Butyl (3-((3-chloro-1-(pyridin-3-yl)-1H-pyrazol-4-yl)(ethyl)amino)-3-oxopropyl)(methyl) carbamate] |  |  | 80 to 100% | 80 to 100%
CCN(C(=O)CCCC1CN(C)C1=O)c1cn(-c2cccnc2)nc1Cl (stereo not shown) [Compound F53, N-(3-Chloro-1-(pyridin-3-yl)-1H-pyrazol-4-yl)-N-ethyl-4-(1-methyl-2-oxoazetidin-3-yl)butanamide] | 80 to 100% | 80 to 100% |  | 

Reference: US9523100B2, “Pesticidal compositions and related methods” (DOW AGROSCIENCES LLC, priority 2013, dated 2016)
